Laboratory results taken from patent publication US9499538B2, “Estrogen receptor modulators and uses thereof” (Seragon Pharmaceuticals, Inc., priority 2012, dated 2016).

How the values were obtained:
ER-α in MCF-7 cells = target: T1, ER-α in MCF-7 cells (Homo sapiens, UniProt P03372); test: Breast Cancer Cell ER-α In Cell Western Assay (SP1); format: cell-based; settings: 4 or 24 hr post compound addition; for Emax: MCF7, SP1 antibody, read-out: ER-α In Cell Western Assay (SP1) Max Response; for DC50: SP1 antibody, read-out: ER-α In Cell Western Assay (SP1) IC50
T1 construct: endogenous in cells; host or cells: MCF-7
T1 sequence (P03372 1-595): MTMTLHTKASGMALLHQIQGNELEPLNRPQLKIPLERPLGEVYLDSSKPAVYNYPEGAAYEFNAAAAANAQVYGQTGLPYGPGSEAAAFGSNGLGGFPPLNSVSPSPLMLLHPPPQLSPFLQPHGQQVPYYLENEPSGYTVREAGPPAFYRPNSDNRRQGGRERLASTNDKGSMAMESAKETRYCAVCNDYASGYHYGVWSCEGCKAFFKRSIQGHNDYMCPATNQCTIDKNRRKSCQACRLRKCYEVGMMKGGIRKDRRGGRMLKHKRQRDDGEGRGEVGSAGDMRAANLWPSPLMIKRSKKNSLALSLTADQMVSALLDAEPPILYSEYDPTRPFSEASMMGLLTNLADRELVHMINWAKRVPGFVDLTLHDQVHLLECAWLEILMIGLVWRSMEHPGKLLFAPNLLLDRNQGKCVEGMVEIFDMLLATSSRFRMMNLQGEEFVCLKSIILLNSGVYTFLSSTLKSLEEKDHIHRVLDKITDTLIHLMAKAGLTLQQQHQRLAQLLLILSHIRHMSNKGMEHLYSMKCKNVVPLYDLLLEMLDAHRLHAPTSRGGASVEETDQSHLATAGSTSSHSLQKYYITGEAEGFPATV
Description: MCF-7 cells were adjusted to a concentration of 200,000 cells per mL in RPMI containing 10% charcoal-stripped FBS and 20 mM HEPES. 16 microliters of the cell suspension (3200 cells) was added to each well of a poly-D-lysine 384 well plate, and the cells were incubated overnight to allow the cells to adhere. The following day an eleven point, serial semilog dilution of each compound was added to the cells in 16 μL at a final concentration ranging from 0.3-0.000003 μM. At 4 or 24 hr post compound addition, the cells were fixed (10% formalin in PBS) for 20 minutes. Cells were permeablized in PBS 0.1% Triton and blocked with LICOR blocking buffer (50 μl/well, 90′). The wells were then incubated overnight at 4° C. with SP1 rabbit monoclonal Ab (Thermo Scientific) diluted 1:1000 in LICOR blocking buffer/0.1% Tween-20. Wells which were treated with blocking buffer with Tween but no antibody were used as a background control. Wells were washed with 0.1% Tween-20/PBS and then incubated in goat anti-rabbit IRDye™ 800CW (LICOR Inc.; 1:10000) and DRAQ5 DNA dye (1:2000 for 2 mM stock) diluted in LICOR blocking buffer containing 0.1% Tween-20 and 0.01% SDS for 60 minutes. Cells were washed (50 μl/well, 5′ each) in 0.1% Tween-20/PBS. Plates were scanned on a LICOR Odyssey infrared imaging system. Integrated intensities in the 800 nm channel and 700 nm channel were measured to determine levels of ER and DNA respectively. Percent ER levels were determined as follows: (Integrated intensity 800 nm sample/integrated intensity 700 nm sample)/(Integrated intensity 800 nm untreated cells/integrated intensity 700 nm untreated cells)×100=% ER levels. […]

MCF-7 cells = test: Breast Cancer Cell Viability Assays (MCF-7, CellTiter-Glo); format: cell-based; settings: 5 days' compound exposure; for IC50: Homo sapiens, MCF7, 120 h
Description: MCF-7 cells were adjusted to a concentration of 20,000 cells per mL in RPMI containing 10% FBS and 20 mM HEPES. 16 microliters of the cell suspension (320 cells) was added to each well of a 384 well plate, and the cells were incubated overnight to allow the cells to adhere. The following day an eleven point, serial semilog dilution of each compound was added to the cells in 16 μL at a final concentration ranging from 0.3-0.000003 μM. After 5 days' compound exposure, 16 μL of CellTiter-GLo (Promega, Madison Wis.) was added to the cells, and the relative luminescence units (RLUs) of each well were determined. CellTiter-Glo added to 32 μL of medium without cells was used to obtain a background value. The Percent viability of each sample was determined as follows: (RLU sample−RLU background/RLU untreated cells−RLU background)×100=% viability. […]

Row | Compound | Emax (ER-α in MCF-7 cells) [%] | DC50 (ER-α in MCF-7 cells) [nM] | MCF7 Viability Assay Max Response (MCF-7 cells) | IC50 (MCF-7 cells) [nM]
1 | Cc1cc([S+](C)[O-])ccc1/C(=C(\c1ccc(/C=C/C(=O)O)cc1)c1ccc2[nH]nc(F)c2c1)C1CCC1 (centres unmarked) [Example 198] | ≥ 40 | ≤ 100 | ++ (++ = a single % value ≧ 40%) | ≤ 100
2 | CC/C(=C(/c1ccc(/C=C/C(=O)O)cc1)c1ccc2[nH]nc(F)c2c1)c1ccc(Cl)cc1C#N [Example 101, (E)-3-(4-((E)-2-(4-Chloro-2-cyanophenyl)-1-(3-fluoro-1H-indazol-5-yl)but-1-en-1-yl)phenyl)acrylic acid] | ≥ 40 | ≤ 100 | ++ (++ = a single % value ≧ 40%) | ≤ 100
3 | CC/C(=C(/c1ccc(/C=C/C(=O)O)cc1)c1ccc2[nH]ncc2c1C#N)c1ccc(F)cc1Cl [Example 6, (E)-3-(4-((E)-2-(2-Chloro-4-fluorophenyl)-1-(4-cyano-1H-indazol-5-yl)but-1-en-1-yl)phenyl)acrylic acid] | ≥ 40 | ≤ 100 | ++ (++ = a single % value ≧ 40%) | ≤ 100
4 | COc1ccc(/C(=C(\c2ccc(/C=C/C(=O)O)cc2)c2ccc3[nH]nc(F)c3c2)C2CC2)c(C)c1 [Example 115, (E)-3-(4-((E)-2-Cyclopropyl-1-(3-fluoro-1H-indazol-5-yl)-2-(4-methoxy-2-methylphenyl)vinyl)phenyl)acrylic acid] | ≥ 40 | ≤ 100 | ++ (++ = a single % value ≧ 40%) | ≤ 100
5 | Cc1nc(/C=C/C(=O)O)ccc1/C(=C(\c1ccccc1)C1CCC1)c1ccc2[nH]nc(F)c2c1 [Example 134, (E)-3-(5-((Z)-2-Cyclobutyl-1-(3-fluoro-1H-indazol-5-yl)-2-phenylvinyl)-6-methylpyridin-2-yl)acrylic acid] | ≥ 40 | ≤ 100 | ++ (++ = a single % value ≧ 40%) | ≤ 100
6 | COc1cccc(/C(=C(\c2ccc(/C=C/C(=O)O)cc2)c2ccc3scnc3c2)C2CCC2)c1 [Example 92, (E)-3-(4-((E)-1-(Benzo[d]thiazol-5-yl)-2-cyclobutyl-2-(3-methoxyphenyl)vinyl)phenyl)acrylic acid] | ≥ 40 | ≤ 100 | ++ (++ = a single % value ≧ 40%) | ≤ 100
7 | O=C(O)/C=C/c1ccc(/C(=C(\c2ncccc2F)C2CCC2)c2ccc3[nH]nc(F)c3c2)cc1 [Example 142, (E)-3-(4-((E)-2-Cyclobutyl-1-(3-fluoro-1H-indazol-5-yl)-2-(3-fluoropyridin-2-yl)vinyl)phenyl)acrylic acid] | ≥ 40 | ≤ 100 | ++ (++ = a single % value ≧ 40%) | ≤ 100
8 | COc1nc(/C=C/C(=O)O)ccc1/C(=C(\c1ccccc1)C1CCC1)c1ccc2[nH]nc(F)c2c1 [Example 164, (E)-3-(5-((Z)-2-Cyclobutyl-1-(3-fluoro-1H-indazol-5-yl)-2-phenylvinyl)-6-methoxypyridin-2-yl)acrylic acid] | ≥ 40 | ≤ 100 | ++ (++ = a single % value ≧ 40%) | ≤ 100
9 | CS(=O)(=O)c1ccc(/C(=C(\c2ccc(/C=C/C(=O)O)cc2)c2ccc3[nH]nc(F)c3c2)C2CCC2)c(Cl)c1 [Example 196, (E)-3-(4-((E)-2-(2-Chloro-4-(methylsulfonyl)phenyl)-2-cyclobutyl-1-(3-fluoro-1H-indazol-5-yl)vinyl)phenyl)acrylic acid] | ≥ 40 | ≤ 100 | ++ (++ = a single % value ≧ 40%) | ≤ 100
10 | O=C(O)/C=C/c1ccc(/C(=C(\c2ccc(F)cc2Cl)C2CCC2)c2ccc3[nH]c(=O)oc3c2)cc1 [Example 28, (E)-3-(4-((E)-2-(2-Chloro-4-fluorophenyl)-2-cyclobutyl-1-(2-oxo-2,3-dihydrobenzo[d]oxazol-6-yl)vinyl)phenyl)acrylic acid] | ≥ 40 | ≤ 100 | ++ (++ = a single % value ≧ 40%) | ≤ 100
11 | O=C(O)/C=C/c1ccc(/C(=C(\c2ncccc2C(F)(F)F)C2CCC2)c2ccc3[nH]nc(F)c3c2)cc1 [Example 145, (E)-3-(4-((E)-2-Cyclobutyl-1-(3-fluoro-1H-indazol-5-yl)-2-(3-(trifluoromethyl)pyridin-2-yl)vinyl)phenyl)acrylic acid] | ≥ 40 | ≤ 100 | ++ (++ = a single % value ≧ 40%) | ≤ 100
12 | N#Cc1cc(F)ccc1/C(=C(\c1ccc(/C=C/C(=O)O)cc1)c1ccc2scnc2c1)C1CCC1 [Example 90, (E)-3-(4-((E)-1-(Benzo[d]thiazol-5-yl)-2-(2-cyano-4-fluorophenyl)-2-cyclobutylvinyl)phenyl)acrylic acid] | ≥ 40 | ≤ 100 | ++ (++ = a single % value ≧ 40%) | ≤ 100
13 | COc1ccc(/C(=C(\c2ccc(/C=C/C(=O)O)cc2)c2ccc3scnc3c2)C2CCC2)c(C#N)c1 [Example 97, (E)-3-(4-((E)-1-(Benzo[d]thiazol-5-yl)-2-(2-cyano-4-methoxyphenyl)-2-cyclobutylvinyl)phenyl)acrylic acid] | ≥ 40 | ≤ 100 | ++ (++ = a single % value ≧ 40%) | ≤ 100
14 | COc1ncc(/C(=C(\c2ccc(/C=C/C(=O)O)cc2)c2ccc3[nH]nc(F)c3c2)C2CCC2)cc1F [Example 137, (E)-3-(4-((E)-2-Cyclobutyl-1-(3-fluoro-1H-indazol-5-yl)-2-(5-fluoro-6-methoxypyridin-3-yl)vinyl)phenyl)acrylic acid] | ≥ 40 | ≤ 100 | ++ (++ = a single % value ≧ 40%) | ≤ 100
15 | COc1cc(C)ncc1/C(=C(\c1ccc(/C=C/C(=O)O)cc1)c1ccc2[nH]nc(F)c2c1)C1CCC1 [Example 133, (E)-3-(4-((E)-2-Cyclobutyl-1-(3-fluoro-1H-indazol-5-yl)-2-(4-methoxy-6-methylpyridin-3-yl)vinyl)phenyl)acrylic acid] | ≥ 40 | ≤ 100 | ++ (++ = a single % value ≧ 40%) | ≤ 100
16 | O=C(O)/C=C/c1ccc(/C(=C(\c2ccc(C(F)(F)F)cc2Cl)C2CCC2)c2ccc3[nH]nc(F)c3c2)cc1 [Example 275, (E)-3-(4-((E)-2-(2-Chloro-4-(trifluoromethyl)phenyl)-2-cyclobutyl-1-(3-fluoro-1H-indazol-5-yl)vinyl)phenyl)acrylic acid] | ≥ 40 | ≤ 100 | ++ (++ = a single % value ≧ 40%) | ≤ 100
17 | O=C(O)/C=C/c1ccc(/C(=C(\c2ccc(Cl)cc2Cl)C2CCC2)c2ccc3nccn3c2)cc1 [Example 220, (E)-3-(4-((E)-2-Cyclobutyl-2-(2,4-dichlorophenyl)-1-(imidazo[1,2-a]pyridin-6-yl)vinyl)phenyl)acrylic acid] | ≥ 40 | ≤ 100 | ++ (++ = a single % value ≧ 40%) | ≤ 100
